Reference: ChEMBL document CHEMBL5252542, “Discovery and Optimization of 5-Amino-1,2,3-triazole-4-carboxamide Series against Trypanosoma cruzi” (J Med Chem, 2017)

Columns and labels:
[1] = buffer, pH 7.4
[2] = Drug metabolism in mouse plasma assessed as release of 3-methoxyaniline measured after 5 hrs; type: ADME, cell-free
[3] = Drug metabolism in po dosed NMRI mouse plasma assessed as release of 3-methoxyaniline; type: ADME, organism-based; conditions: in vivo
[4] = mouse, in vivo, po, 10 mg/kg, 8 h
[5] = mouse, in vivo, po, 10 mg/kg, 24 h
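For logD in this document: logD at pH 7.4 derived from a chromatographic hydrophobicity index measured by reversed-phase HPLC.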

logD [1] | SMILES | further results
1.3 | COc1cccc(NC(=O)c2nnn(Cc3ccc([S+](C)[O-])cc3)c2N)c1 (stereo not given) | 
 | COc1cccc(NC(=O)c2nnn(Cc3ccc(CN4CCOCC4)cc3)c2N)c1 | Drug metabolism [2]: Metabolite_Notdetected; Drug metabolism [3]: Metabolite_Notdetected
1 | COc1cccnc1-c1noc(-c2nnn(Cc3ccc(CN4CCOCC4)cc3)c2N)n1 | 
3.2 | COc1cccc(NC(=O)c2nnn(Cc3ccc(C4CC4)cc3)c2N)c1 | 
2.6 | COc1cccc(NC(=O)c2nnn(Cc3ccccc3)c2N)c1 | 
0.6 | COc1cccc(NC(=O)c2nnn(CC3CCNCC3)c2N)c1 | 
3.9 | COc1cccc(NC(=O)c2nnn(C(C)c3ccc(C(C)(C)C)cc3)c2N)c1 (stereo not given) | 
1.2 | COc1cccc(NC(=O)c2nnn(CC3CCN(C(C)=O)CC3)c2N)c1 | 
1.1 | COc1cnccc1-c1noc(-c2nnn(Cc3ccc(CN4CCOCC4)cc3)c2N)n1 | 
2.1 | COc1cc(NC(=O)c2nnn(Cc3ccc(CN4CCOCC4)cc3)c2N)nc(OC)n1 | AUC [4]: 300000 ng·min/mL; Cmax [5]: 1300 ng/mL
2 | COc1cccc(NC(=O)c2nnn(Cc3cc(C)on3)c2N)c1 | 
2.1 | Cc1noc(C)c1-c1noc(-c2nnn(Cc3ccc(CN4CCOCC4)cc3)c2N)n1 | 
2 | COC1CCCC(NC(=O)c2nnn(Cc3ccc(CN4CCOCC4)cc3)c2N)C1 (stereo not given) | 
2.2 | COc1cc(NC(=O)c2nnn(Cc3ccc(CN4CCOCC4)cc3)c2N)cc(OC)c1 | AUC [4]: 370000 ng·min/mL; Cmax [5]: 1600 ng/mL
1.4 | COc1cccc(NC(=O)c2nnn(Cc3ccncc3)c2N)c1 | 
0.9 | Nc1c(-c2nc(C3CCC(O)CC3)no2)nnn1Cc1ccc(CN2CCOCC2)cc1 (stereo not given) | 
2 | COc1ccnc(NC(=O)c2nnn(Cc3ccc(CN4CCOCC4)cc3)c2N)c1 | 

logD [1] | SMILES | further results
2.1 | COc1ccccc1-c1noc(-c2nnn(Cc3ccc(CN4CCOCC4)cc3)c2N)n1 | 
3.4 | COc1cccc(NC(=O)c2nnn(Cc3ccc(C(C)C)cc3)c2N)c1 | AUC [4]: 3200 ng·min/mL; Cmax [5]: 17 ng/mL
2.4 | COc1cccc(NC(=O)c2nnn(Cc3ccc(-n4cccn4)cc3)c2N)c1 | 
1 | COc1nnccc1-c1noc(-c2nnn(Cc3ccc(CN4CCOCC4)cc3)c2N)n1 | 
3.6 | COc1cccc(NC(=O)c2nnn(Cc3ccc(OC(F)(F)F)cc3)c2N)c1 | AUC [4]: 2300 ng·min/mL; Cmax [5]: 13 ng/mL
2 | Nc1c(C(=O)Nc2ccccc2)nnn1Cc1ccc(CN2CCOCC2)cc1 | 
2.1 | COc1cc(NC(=O)c2nnn(Cc3ccc(CN4CCOCC4)cc3)c2N)ccc1F | 
2 | COc1cccc(N(C)C(=O)c2nnn(Cc3ccc(CN4CCOCC4)cc3)c2N)c1 | 
2.1 | COc1cccc(NC(=O)c2nnn(Cc3ccc(CN4CCOCC4)cc3)c2N)c1F | 
2 | Nc1c(C(=O)NC23CC4CC(CC(C4)C2)C3)nnn1Cc1ccc(CN2CCOCC2)cc1 | 
1.3 | Nc1c(-c2nc(C3CCOCC3)no2)nnn1Cc1ccc(CN2CCOCC2)cc1 | 
1.7 | COc1ncccc1-c1noc(-c2nnn(Cc3ccc(CN4CCOCC4)cc3)c2N)n1 | AUC [4]: 190000 ng·min/mL; Cmax [5]: 1300 ng/mL
2.6 | Nc1c(-c2nc(-c3ccccc3)no2)nnn1Cc1ccc(CN2CCOCC2)cc1 | 
2.4 | COc1cc(F)cc(NC(=O)c2nnn(Cc3ccc(CN4CCOCC4)cc3)c2N)c1 | 
2 | Cc1cccc(NC(=O)c2nnn(Cc3ccc(CN4CCOCC4)cc3)c2N)c1 | 
2.9 | COc1cccc(NC(=O)c2nnn(CC3CCN(C(=O)OC(C)(C)C)CC3)c2N)c1 | 
2.3 | COc1cccc(NC(=O)c2nnn(Cc3ccc(C#N)cc3)c2N)c1 | 
